Results reported in US8937067B2, “Activators of human pyruvate kinase” (The United States of America, as represented by the …, priority 2008, dated 2015).
Like-named read-outs stand apart in the source and are kept apart here.

Biological target: hPK-M2 (Homo sapiens, UniProt P14618)
Assay: Luminescent pyruvate kinase-luciferase coupled assay (KinaseGlo)
Format: biochemical
Settings: for activation at 57 µM: read-out: hPK, M2 Max. Res.
Method: Luminescent Pyruvate Kinase-Luciferase Coupled Assay.
Production of a luminescent signal based on the generation of ATP by pyruvate kinase was determined by using the ATP-dependent enzyme firefly luciferase. Three μL of substrate mix (at r.t.) in assay buffer (50 mM imidazole pH 7.2, 50 mM KCl, 7 mM MgCl2, 0.01% tween 20, 0.05% BSA) was dispensed into Kalypsys white solid bottom 1,536 well microtiter plates using a bottle-valve solenoid-based dispenser (Kalypsys). The final concentrations of substrates in the assay were 0.1 mM ADP and 0.5 mM PEP. […] Microtiter plates were incubated at r.t. for 1 hour and 2 uL of luciferase detection mix (Kinase-Glo, Promega at 4° C. protected from light) was added and luminescence was read with a ViewLux (Perkin Elmer) using a 5 second exposure/plate. Data was normalized for AC50 values to control columns containing uninhibited enzyme (n), and AC100 inhibition (i) according the following equation: Activation (%)=[(c−n)/(n−i)]*100 where c=compound, n=DMSO neutral, i=no enzyme control. […] Monitoring of activation was accomplished using enzyme at 3× the final concentration.

[1] = KinaseGlo, % activation at 57 μM of compound
[2] = luciferase-coupled assay, read-out: AC50
[3] = luminescent pyruvate kinase-luciferase coupled assay (KinaseGlo), tables, read-out: hPK, M2 AC50

Chain of hPK-M2 (P14618 whole entry): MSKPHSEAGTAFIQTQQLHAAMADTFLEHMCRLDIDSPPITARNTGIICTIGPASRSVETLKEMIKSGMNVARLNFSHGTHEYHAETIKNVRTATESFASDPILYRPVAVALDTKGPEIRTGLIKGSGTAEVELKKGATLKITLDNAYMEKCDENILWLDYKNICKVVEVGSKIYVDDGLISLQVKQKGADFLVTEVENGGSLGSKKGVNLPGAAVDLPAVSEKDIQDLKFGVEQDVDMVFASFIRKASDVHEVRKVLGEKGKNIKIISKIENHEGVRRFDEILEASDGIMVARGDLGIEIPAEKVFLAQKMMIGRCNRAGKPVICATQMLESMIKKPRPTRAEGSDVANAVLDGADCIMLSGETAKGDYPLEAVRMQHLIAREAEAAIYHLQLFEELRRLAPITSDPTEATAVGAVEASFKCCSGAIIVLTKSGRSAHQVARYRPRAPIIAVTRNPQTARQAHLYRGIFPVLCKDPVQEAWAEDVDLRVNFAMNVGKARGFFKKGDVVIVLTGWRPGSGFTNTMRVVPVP

Structure (SMILES) | activation at 57 µM [1] | AC50 [3] | further results
O=S(=O)(c1ccc2c(c1)OCCO2)N1CCN(S(=O)(=O)c2ccc3c(c2)OCCO3)CC1 [Compound 2, 1,4-bis(2,3-dihydrobenzo[b][1,4]dioxin-6-ylsulfonyl)piperazine] | 89.7 ± 2.2% |  | AC50 [2]: 270 nM
O=S(=O)(c1ccc2c(c1)OCCO2)N1CCN(S(=O)(=O)c2c(F)cccc2F)CC1 [Compound 9, 1-(2,6-difluorophenylsulfonyl)-4-(2,3-dihydrobenzo[b][1,4]dioxin-6-ylsulfonyl)piperazine] | 94.4 ± 2.8% |  | AC50 [2]: 65 ± 25 nM
O=S(=O)(c1ccc2c(c1)OCCO2)N1CCN(S(=O)(=O)c2cc(F)c(F)cc2F)CC1 [Compound 10, 1-(2,3-dihydrobenzo[b][1,4]dioxin-6-ylsulfonyl)-4-(2,4,5-trifluorophenylsulfonyl)piperazine] | 105 ± 7.6% | 90 nM | 
CCCc1cc(F)c(S(=O)(=O)N2CCN(S(=O)(=O)c3ccc4c(c3)OCCO4)CC2)cc1F [Compound 12, 1-(2,5-difluoro-4-propylphenylsulfonyl)-4-(2,3-dihydrobenzo[b][1,4]dioxin-6-ylsulfonyl)piperazine] | 69.2 ± 10.4% | 757 nM | PKM2 activation, result in words: diminished activity
O=S(=O)(c1ccc2c(c1)OCCO2)N1CCN(S(=O)(=O)c2c(F)ccc(O)c2F)CC1 [Compound 13, 3-(4-(2,3-dihydrobenzo[b][1,4]dioxin-6-ylsulfonyl)piperazin-1-ylsulfonyl)-2,4-difluorophenol] | 95.3 ± 8.4% |  | AC50 [2]: 52 ± 14 nM
O=S(=O)(c1ccc2c(c1)OCCO2)N1CCN(S(=O)(=O)c2ccc(F)cc2F)CC1 [Compound 14, 1-(2,4-difluorophenylsulfonyl)-4-(2,3-dihydrobenzo[b][1,4]dioxin-6-ylsulfonyl)piperazine] | 113 ± 6.3% | 124 nM | 
O=S(=O)(c1c(F)cccc1F)C1CCN(S(=O)(=O)c2ccc3c(c2)OCCO3)CC1 [Compound 20, 4-(2,6-difluorophenylsulfonyl)-1-(2,3-dihydrobenzo[b][1,4]dioxin-6-ylsulfonyl)piperidine] | 104 ± 5.1% | 254 nM | 
O=S(=O)(c1ccc2c(c1)OCO2)N1CCN(S(=O)(=O)c2c(F)cccc2F)CC1 [Compound 24, 1-(benzo[d][1,3]dioxol-5-ylsulfonyl)-4-(2,6-difluorophenylsulfonyl)piperazine] | 61 ± 1.2% | 191 nM | 
O=S(=O)(c1ccc2c(c1)OCCO2)C1CCN(S(=O)(=O)c2c(F)cccc2F)CC1 [Compound 30, 1-(2,6-difluorophenylsulfonyl)-4-(2,3-dihydrobenzo[b][1,4]dioxin-6-ylsulfonyl)piperidine] | 110 ± 5.4% | 863 nM | 
O=S(=O)(c1ccc2c(c1)OCCO2)N1CCCN(S(=O)(=O)c2c(F)cccc2F)CC1 [Compound 31, 1-(2,6-difluorophenylsulfonyl)-4-(2,3-dihydrobenzo[b][1,4]dioxin-6-ylsulfonyl)-1,4-diazepane] | 120 ± 7.3% |  | AC50 [2]: 866 nM
O=S(=O)(NCCNS(=O)(=O)c1c(F)cccc1F)c1ccc2c(c1)OCCO2 [Compound 32, N-(2-(2,6-difluorophenylsulfonamido)ethyl)-2,3-dihydrobenzo[b][1,4]dioxine-6-sulfonamide] | 60.3 ± 20.6% |  | 
O=S(=O)(NCCCNS(=O)(=O)c1c(F)cccc1F)c1ccc2c(c1)OCCO2 [Compound 33, N-(3-(2,6-difluorophenylsulfonamido)propyl)-2,3-dihydrobenzo[b][1,4]dioxine-6-sulfonamide] | 106 ± 5.1% | 3850 ± 530 nM | 
O=S(=O)(NCCCCNS(=O)(=O)c1c(F)cccc1F)c1ccc2c(c1)OCCO2 [Compound 34, N-(4-(2,6-difluorophenylsulfonamido)butyl)-2,3-dihydrobenzo[b][1,4]dioxine-6-sulfonamide] | 113 ± 14.6% | 7970 ± 4050 nM | 
O=S(=O)(NCCCCCNS(=O)(=O)c1c(F)cccc1F)c1ccc2c(c1)OCCO2 [Compound 35, N-(5-(2,6-difluorophenylsulfonamido)pentyl)-2,3-dihydrobenzo[b][1,4]dioxine-6-sulfonamide] | 114 ± 1.4% | 2330 ± 160 nM | 
O=S(=O)(NCCCCCCNS(=O)(=O)c1c(F)cccc1F)c1ccc2c(c1)OCCO2 [Compound 36, N-(6-(2,6-difluorophenylsulfonamido)hexyl)-2,3-dihydrobenzo[b][1,4]dioxine-6-sulfonamide] | 110 ± 3% | 4830 ± 310 nM | 
O=S(=O)(NC1CCN(S(=O)(=O)c2c(F)cccc2F)CC1)c1ccc2c(c1)OCCO2 [Compound 39, N-(1-(2,6-difluorophenylsulfonyl)piperidin-4-yl)-2,3-dihydrobenzo[b][1,4]dioxine-6-sulfonamide] | 101 ± 1.9% | 3690 ± 1260 nM | 
O=S(=O)(NC1CCN(S(=O)(=O)c2ccc3c(c2)OCCO3)CC1)c1c(F)cccc1F [Compound 40, N-(1-(2,3-dihydrobenzo[b][1,4]dioxin-6-ylsulfonyl)piperidin-4-yl)-2,6-difluorobenzenesulfonamide] | 99.6 ± 3.1% | 9000 ± 4500 nM | 

Now from value to compound, other results behind:

activation at 57 µM [1] | AC50 [3] | Structure (SMILES) | further results
87.6 ± 16.2% | 171 nM | COc1ccc(S(=O)(=O)N2CCN(S(=O)(=O)c3ccc(OC)cc3)CC2)cc1 [Compound 3, 1,4-bis(4-methoxyphenylsulfonyl)piperazine] | 
44.1 ± 6.1% | 29 nM | N#Cc1ccc(S(=O)(=O)N2CCN(S(=O)(=O)c3ccc4c(c3)OCCO4)CC2)cc1 [Compound 4, 4-(4-(2,3-dihydrobenzo[b][1,4]dioxin-6-ylsulfonyl)piperazin-1-ylsulfonyl)benzonitrile] | 
99.6 ± 2.5% | 154 nM | O=S(=O)(c1ccc(Cl)cc1)N1CCN(S(=O)(=O)c2ccc3c(c2)OCCO3)CC1 [Compound 5, 1-(4-chlorophenylsulfonyl)-4-(2,3-dihydrobenzo[b][1,4]dioxin-6-ylsulfonyl)piperazine] | 
99.7 ± 4.2% | 94 nM | O=S(=O)(c1ccc(F)cc1)N1CCN(S(=O)(=O)c2ccc3c(c2)OCCO3)CC1 [Compound 6, 1-(2,3-dihydrobenzo[b][1,4]dioxin-6-ylsulfonyl)-4-(4-fluorophenylsulfonyl)piperazine] | 
114 ± 4% | 89 nM | O=S(=O)(c1ccc2c(c1)OCCO2)N1CCN(S(=O)(=O)c2ccccc2F)CC1 [Compound 8, 1-(2,3-dihydrobenzo[b][1,4]dioxin-6-ylsulfonyl)-4-(2-fluorophenylsulfonyl)piperazine] | 
91.8 ± 9.6% | 28 nM | COc1cc(F)c(S(=O)(=O)N2CCN(S(=O)(=O)c3ccc4c(c3)OCCO4)CC2)c(F)c1 [Compound 11, 1-(2,6-difluoro-4-methoxyphenylsulfonyl)-4-(2,3-dihydrobenzo[b][1,4]dioxin-6-ylsulfonyl)piperazine] | 
108 ± 4.3% | 202 nM | O=S(=O)(c1ccccc1)N1CCN(S(=O)(=O)c2ccc3c(c2)OCCO3)CC1 [Compound 15, 1-(2,3-dihydrobenzo[b][1,4]dioxin-6-ylsulfonyl)-4-(phenylsulfonyl)piperazine] | 
39.3 ± 6.2% | 209 nM | O=S(=O)(c1cccc(C(F)(F)F)c1)N1CCN(S(=O)(=O)c2ccc3c(c2)OCCO3)CC1 [Compound 16, 1-(2,3-dihydrobenzo[b][1,4]dioxin-6-ylsulfonyl)-4-(3-(trifluoromethyl)phenylsulfonyl)piperazine] | 
90 ± 4.5% | 113 nM | COc1cccc(S(=O)(=O)N2CCN(S(=O)(=O)c3ccc4c(c3)OCCO4)CC2)c1 [Compound 17, 1-(2,3-dihydrobenzo[b][1,4]dioxin-6-ylsulfonyl)-4-(3-methoxyphenylsulfonyl)piperazine] | 
103 ± 6.6% | 542 nM | O=S(=O)(c1ccc2c(c1)OCCO2)N1CCN(S(=O)(=O)c2ccccn2)CC1 [Compound 18, 1-(2,3-dihydrobenzo[b][1,4]dioxin-6-ylsulfonyl)-4-(pyridin-2-ylsulfonyl)piperazine] | 
81.5 ± 3.2% |  | O=S(=O)(c1ccc2c(c1)OCCO2)N1CCN(S(=O)(=O)c2cccc[n+]2[O-])CC1 [Compound 19, 2-(4-(2,3-dihydrobenzo[b][1,4]dioxin-6-ylsulfonyl)piperazin-1-ylsulfonyl)pyridine 1-oxide] | AC50 [2]: 254 ± 47 nM; Emax (luciferase-coupled assay, relative to activation by FBP, read-out: maximum response): 104%
 | 2710 nM | CN1CCOc2ccc(S(=O)(=O)N3CCN(S(=O)(=O)c4c(F)cccc4F)CC3)cc21 [Compound 25, 6-(4-(2,6-difluorophenylsulfonyl)piperazin-1-ylsulfonyl)-4-methyl-3,4-dihydro-2H-benzo[b][1,4]oxazine] | hPK, M2 Max. Res. [1]: 93.5 ± 5.9%
119 ± 5.4% | 93 nM | CC1(C)CCc2cc(S(=O)(=O)N3CCN(S(=O)(=O)c4c(F)cccc4F)CC3)ccc2O1 [Compound 27, 1-(2,6-difluorophenylsulfonyl)-4-(2,2-dimethylchroman-6-ylsulfonyl)piperazine] | 
91.1 ± 4.7% | 387 nM | Cn1ccc2cc(S(=O)(=O)N3CCN(S(=O)(=O)c4c(F)cccc4F)CC3)ccc21 [Compound 28, 5-(4-(2,6-difluorophenylsulfonyl)piperazin-1-ylsulfonyl)-1-methyl-1H-indole] | 
